Earlier results, collected in US20050114109A1, “STRUCTURE OF INTEGRIN ALPHA V-beta 3 EXTRACELLULAR DOMAIN COMPLEXED WITH LIGAND” (priority 2002, published 2005).

System: native or extracellular αVβ3
Details: physiologic ligands, from Mehta et al. 1998 and Dechantsreiter et al. 1999, read-out: IC50, competes with binding of physiologic ligands to αVβ3

Chain of native or extracellular αVβ3 (P06756 31-889 limits assumed): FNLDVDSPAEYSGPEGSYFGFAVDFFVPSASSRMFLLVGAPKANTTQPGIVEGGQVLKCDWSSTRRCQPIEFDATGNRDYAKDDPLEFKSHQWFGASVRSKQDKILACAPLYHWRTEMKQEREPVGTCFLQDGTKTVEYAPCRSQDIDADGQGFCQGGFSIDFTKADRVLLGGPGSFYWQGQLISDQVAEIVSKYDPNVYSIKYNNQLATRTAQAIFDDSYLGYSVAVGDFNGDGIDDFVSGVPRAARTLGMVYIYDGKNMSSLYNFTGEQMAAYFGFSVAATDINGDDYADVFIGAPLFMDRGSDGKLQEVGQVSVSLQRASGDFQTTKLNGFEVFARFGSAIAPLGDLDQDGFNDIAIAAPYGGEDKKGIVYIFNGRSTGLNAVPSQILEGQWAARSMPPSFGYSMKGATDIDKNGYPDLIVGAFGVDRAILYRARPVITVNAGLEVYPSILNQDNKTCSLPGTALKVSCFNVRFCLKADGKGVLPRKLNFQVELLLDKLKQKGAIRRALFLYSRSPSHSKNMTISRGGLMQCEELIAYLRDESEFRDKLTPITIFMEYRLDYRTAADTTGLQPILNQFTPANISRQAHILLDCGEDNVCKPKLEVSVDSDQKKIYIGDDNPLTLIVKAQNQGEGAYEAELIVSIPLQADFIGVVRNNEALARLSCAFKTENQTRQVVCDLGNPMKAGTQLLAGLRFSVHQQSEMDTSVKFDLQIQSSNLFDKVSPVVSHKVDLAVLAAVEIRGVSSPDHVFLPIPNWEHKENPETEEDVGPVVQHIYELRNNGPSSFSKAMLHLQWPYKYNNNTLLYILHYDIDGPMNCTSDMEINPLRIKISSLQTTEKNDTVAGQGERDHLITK
Chain of native or extracellular αVβ3 (P06756 891-987 limits assumed): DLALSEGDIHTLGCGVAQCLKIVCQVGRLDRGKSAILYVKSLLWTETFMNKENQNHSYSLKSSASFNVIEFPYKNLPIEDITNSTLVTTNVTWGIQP
Chain of native or extracellular αVβ3 (P05106 27-625 limits assumed, further chain): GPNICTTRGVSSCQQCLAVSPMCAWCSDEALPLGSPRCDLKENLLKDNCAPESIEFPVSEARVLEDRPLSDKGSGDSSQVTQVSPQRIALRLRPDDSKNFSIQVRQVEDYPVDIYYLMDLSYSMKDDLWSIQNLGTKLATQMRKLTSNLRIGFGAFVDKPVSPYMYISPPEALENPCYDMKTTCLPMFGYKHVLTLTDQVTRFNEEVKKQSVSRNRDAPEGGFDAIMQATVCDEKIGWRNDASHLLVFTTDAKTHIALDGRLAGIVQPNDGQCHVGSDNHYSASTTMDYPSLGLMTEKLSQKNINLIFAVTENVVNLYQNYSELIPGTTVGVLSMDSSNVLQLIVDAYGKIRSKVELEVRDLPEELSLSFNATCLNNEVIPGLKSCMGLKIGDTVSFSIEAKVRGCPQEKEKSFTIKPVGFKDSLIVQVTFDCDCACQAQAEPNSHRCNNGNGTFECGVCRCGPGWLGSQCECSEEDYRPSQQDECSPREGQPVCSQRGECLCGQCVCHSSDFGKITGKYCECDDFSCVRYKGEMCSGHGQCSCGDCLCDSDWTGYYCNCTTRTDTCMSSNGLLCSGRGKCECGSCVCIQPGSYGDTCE

IC50: 0.5 to 3 nM
Substance: Arg-Gly-Asp-(D-Phe)-(N-methyl-Val) [Cyclo(RGDf-N-Me-V), cyclic pentapeptide ligand of αVβ3, in clinical trials as an anti-angiogenic therapeutic]
